Counter-ions that a name gives are not always drawn.
Legend:
[1] = target: T1, Dual specificity calcium/calmodulin-dependent 3',5'-cyclic nucleotide phosphodiesterase 1A (Homo sapiens, UniProt P54750); test: Inhibition of full-length recombinant human PDE1A using [3H]-cGMP as substrate incubated for 10 mins by SPA assay
[2] = target: T2, cGMP-dependent 3',5'-cyclic phosphodiesterase (Homo sapiens, UniProt O00408); test: Inhibition of full-length recombinant human PDE2A using [3H]-cGMP as substrate incubated for 10 mins by SPA assay
[3] = target: cGMP-inhibited 3',5'-cyclic phosphodiesterase 3A (Homo sapiens, UniProt Q14432); test: Inhibition of full-length recombinant human PDE3A using [3H]-cGMP as substrate incubated for 10 mins by SPA assay
[4] = target: 3',5'-cyclic-AMP phosphodiesterase 4D (Homo sapiens, UniProt Q08499); test: Inhibition of his-tagged recombinant human PDE4D catalytic domain (T86 to S413 residues) expressed in Escherichia coli BL21(DE3) using [3H]-cAMP as substrate incubated for 10 mins by SPA assay
Sequence of 3',5'-cyclic-AMP phosphodiesterase 4D (Q08499 whole entry, the tested form may be a part): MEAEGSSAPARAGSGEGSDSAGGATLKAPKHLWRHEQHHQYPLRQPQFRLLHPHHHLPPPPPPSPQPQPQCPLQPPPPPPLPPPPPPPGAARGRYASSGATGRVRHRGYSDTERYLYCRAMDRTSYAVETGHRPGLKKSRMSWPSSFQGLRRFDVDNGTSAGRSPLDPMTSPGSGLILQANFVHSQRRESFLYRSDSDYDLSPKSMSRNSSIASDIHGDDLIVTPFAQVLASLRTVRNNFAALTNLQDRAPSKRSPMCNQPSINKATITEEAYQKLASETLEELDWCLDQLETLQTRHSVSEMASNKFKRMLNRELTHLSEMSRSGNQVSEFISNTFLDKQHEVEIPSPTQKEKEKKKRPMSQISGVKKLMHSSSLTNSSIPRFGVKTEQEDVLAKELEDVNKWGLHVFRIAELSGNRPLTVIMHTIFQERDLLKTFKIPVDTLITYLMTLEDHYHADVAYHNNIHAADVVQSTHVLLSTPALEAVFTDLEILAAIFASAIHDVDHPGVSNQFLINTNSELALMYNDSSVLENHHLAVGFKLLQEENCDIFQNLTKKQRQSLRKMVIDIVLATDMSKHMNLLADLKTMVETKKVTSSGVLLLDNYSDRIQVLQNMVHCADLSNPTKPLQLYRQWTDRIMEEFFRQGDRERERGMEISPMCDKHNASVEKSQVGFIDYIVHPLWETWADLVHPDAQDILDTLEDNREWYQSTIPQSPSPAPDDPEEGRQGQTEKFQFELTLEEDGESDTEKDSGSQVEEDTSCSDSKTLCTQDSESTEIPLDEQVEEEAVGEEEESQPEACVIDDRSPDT

[5] = target: cGMP-specific 3',5'-cyclic phosphodiesterase (Homo sapiens, UniProt O76074); test: Inhibition of his-tagged recombinant human PDE5A catalytic domain (E535 to Q860 residues) expressed in Escherichia coli BL21(DE3) using [3H]-cGMP as substrate incubated for 10 mins by SPA assay
[6] = target: High affinity 3',5'-cyclic-AMP phosphodiesterase 7A (Homo sapiens, UniProt Q13946); test: Inhibition of his-tagged recombinant human PDE7A catalytic domain (S130 to S482 residues) expressed in Escherichia coli BL21(DE3) using [3H]-cAMP as substrate incubated for 10 mins by SPA assay
Sequence of High affinity 3',5'-cyclic-AMP phosphodiesterase 7A (Q13946 whole entry, the tested form may be a part): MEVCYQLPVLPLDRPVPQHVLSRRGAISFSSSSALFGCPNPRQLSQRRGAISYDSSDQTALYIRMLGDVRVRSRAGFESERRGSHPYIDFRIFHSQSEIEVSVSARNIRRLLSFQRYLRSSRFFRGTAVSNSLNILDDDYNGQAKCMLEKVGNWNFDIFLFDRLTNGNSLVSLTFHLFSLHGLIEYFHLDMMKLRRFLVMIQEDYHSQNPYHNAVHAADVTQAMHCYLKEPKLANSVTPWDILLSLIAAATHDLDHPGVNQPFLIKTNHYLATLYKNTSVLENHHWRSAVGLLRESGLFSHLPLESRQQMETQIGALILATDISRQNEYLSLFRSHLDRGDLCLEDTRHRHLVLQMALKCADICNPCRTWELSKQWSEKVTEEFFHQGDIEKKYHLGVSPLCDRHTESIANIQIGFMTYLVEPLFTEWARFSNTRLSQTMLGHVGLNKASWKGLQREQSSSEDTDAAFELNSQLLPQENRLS

[7] = target: High affinity cAMP-specific and IBMX-insensitive 3',5'-cyclic phosphodiesterase 8A (Homo sapiens, UniProt O60658); test: Inhibition of full-length recombinant human PDE8A using [3H]-cAMP as substrate incubated for 10 mins by SPA assay
Sequence of High affinity cAMP-specific and IBMX-insensitive 3',5'-cyclic phosphodiesterase 8A (O60658 whole entry, the tested form may be a part): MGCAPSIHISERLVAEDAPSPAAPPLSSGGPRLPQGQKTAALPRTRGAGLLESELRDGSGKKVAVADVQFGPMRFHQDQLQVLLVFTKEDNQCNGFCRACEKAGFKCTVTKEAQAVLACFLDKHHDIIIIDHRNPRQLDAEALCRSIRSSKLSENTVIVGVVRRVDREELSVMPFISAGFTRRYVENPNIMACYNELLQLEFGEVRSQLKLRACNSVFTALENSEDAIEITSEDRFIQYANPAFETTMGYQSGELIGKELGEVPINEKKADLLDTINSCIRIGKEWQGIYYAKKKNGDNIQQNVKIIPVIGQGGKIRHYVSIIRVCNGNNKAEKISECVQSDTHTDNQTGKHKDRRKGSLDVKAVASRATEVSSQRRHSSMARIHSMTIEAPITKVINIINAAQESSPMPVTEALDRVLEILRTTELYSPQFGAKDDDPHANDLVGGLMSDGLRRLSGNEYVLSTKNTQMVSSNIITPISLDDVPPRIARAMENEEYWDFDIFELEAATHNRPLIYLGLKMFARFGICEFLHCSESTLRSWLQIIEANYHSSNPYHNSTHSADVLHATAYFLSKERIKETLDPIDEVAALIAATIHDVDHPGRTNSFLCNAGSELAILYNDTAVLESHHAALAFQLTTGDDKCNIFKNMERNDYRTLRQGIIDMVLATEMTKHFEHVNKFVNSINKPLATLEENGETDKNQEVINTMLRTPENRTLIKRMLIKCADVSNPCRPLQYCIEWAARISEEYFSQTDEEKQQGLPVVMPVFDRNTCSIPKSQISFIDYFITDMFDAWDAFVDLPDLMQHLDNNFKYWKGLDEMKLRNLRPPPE

[8] = target: High affinity cGMP-specific 3',5'-cyclic phosphodiesterase 9A (Homo sapiens, UniProt O76083); test: Inhibition of his-tagged recombinant human PDE9A catalytic domain (P181 to K506 residues) expressed in Escherichia coli BL21(DE3) using [3H]-cGMP as substrate incubated for 10 mins by SPA assay
Sequence of High affinity cGMP-specific 3',5'-cyclic phosphodiesterase 9A (O76083 whole entry, the tested form may be a part): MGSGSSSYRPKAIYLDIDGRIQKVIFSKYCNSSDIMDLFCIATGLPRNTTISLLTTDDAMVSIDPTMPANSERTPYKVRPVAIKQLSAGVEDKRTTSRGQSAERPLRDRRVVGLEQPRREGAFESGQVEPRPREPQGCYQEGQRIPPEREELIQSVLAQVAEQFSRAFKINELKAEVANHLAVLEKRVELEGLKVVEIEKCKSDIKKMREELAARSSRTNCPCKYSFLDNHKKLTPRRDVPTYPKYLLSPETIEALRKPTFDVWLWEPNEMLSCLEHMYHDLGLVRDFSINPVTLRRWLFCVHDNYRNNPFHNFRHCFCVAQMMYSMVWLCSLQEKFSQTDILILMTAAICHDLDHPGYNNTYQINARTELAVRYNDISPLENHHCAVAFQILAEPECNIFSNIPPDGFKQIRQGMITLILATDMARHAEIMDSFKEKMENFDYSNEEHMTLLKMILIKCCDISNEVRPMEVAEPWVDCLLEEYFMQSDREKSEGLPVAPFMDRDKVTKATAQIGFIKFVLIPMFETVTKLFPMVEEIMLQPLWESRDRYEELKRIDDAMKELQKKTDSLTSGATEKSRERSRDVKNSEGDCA

[9] = target: cAMP and cAMP-inhibited cGMP 3',5'-cyclic phosphodiesterase 10A (Homo sapiens, UniProt Q9Y233); test: Inhibition of his-tagged recombinant human PDE10A catalytic domain (S439 to A766 residues) expressed in Escherichia coli BL21(DE3) using [3H]-cAMP as substrate incubated for 10 mins by SPA assay
Sequence of cAMP and cAMP-inhibited cGMP 3',5'-cyclic phosphodiesterase 10A (Q9Y233 whole entry, the tested form may be a part): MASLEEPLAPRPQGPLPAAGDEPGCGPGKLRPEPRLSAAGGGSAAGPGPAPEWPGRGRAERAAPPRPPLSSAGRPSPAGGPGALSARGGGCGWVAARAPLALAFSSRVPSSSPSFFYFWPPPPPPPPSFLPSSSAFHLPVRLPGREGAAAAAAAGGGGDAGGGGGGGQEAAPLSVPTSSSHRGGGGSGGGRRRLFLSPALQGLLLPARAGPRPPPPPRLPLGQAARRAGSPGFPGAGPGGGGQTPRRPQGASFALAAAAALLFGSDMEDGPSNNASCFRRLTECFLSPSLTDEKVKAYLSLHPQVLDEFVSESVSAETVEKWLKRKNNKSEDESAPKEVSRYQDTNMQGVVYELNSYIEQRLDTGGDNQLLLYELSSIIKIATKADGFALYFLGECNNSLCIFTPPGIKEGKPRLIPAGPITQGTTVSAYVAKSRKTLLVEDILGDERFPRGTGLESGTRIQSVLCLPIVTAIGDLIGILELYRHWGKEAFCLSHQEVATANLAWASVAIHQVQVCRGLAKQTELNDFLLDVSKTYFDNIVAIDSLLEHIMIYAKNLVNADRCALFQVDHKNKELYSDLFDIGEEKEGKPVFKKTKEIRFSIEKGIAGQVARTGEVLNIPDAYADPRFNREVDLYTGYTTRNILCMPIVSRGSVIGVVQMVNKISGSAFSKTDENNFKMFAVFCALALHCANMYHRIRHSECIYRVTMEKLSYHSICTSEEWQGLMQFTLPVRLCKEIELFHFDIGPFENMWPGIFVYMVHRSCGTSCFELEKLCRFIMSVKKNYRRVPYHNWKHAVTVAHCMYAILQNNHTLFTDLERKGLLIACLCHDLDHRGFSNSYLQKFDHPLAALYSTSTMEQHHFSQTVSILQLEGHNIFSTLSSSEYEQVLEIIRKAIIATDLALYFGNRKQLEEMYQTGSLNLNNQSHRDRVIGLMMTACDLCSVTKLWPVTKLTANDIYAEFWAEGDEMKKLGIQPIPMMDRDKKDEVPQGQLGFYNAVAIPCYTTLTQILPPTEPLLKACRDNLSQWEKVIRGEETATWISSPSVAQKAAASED

[10] = target: Dual 3',5'-cyclic-AMP and -GMP phosphodiesterase 11A (Homo sapiens, UniProt Q9HCR9); test: Inhibition of full-length recombinant human PDE11A using [3H]-cAMP as substrate incubated for 10 mins by SPA assay
Sequence of Dual 3',5'-cyclic-AMP and -GMP phosphodiesterase 11A (Q9HCR9 whole entry): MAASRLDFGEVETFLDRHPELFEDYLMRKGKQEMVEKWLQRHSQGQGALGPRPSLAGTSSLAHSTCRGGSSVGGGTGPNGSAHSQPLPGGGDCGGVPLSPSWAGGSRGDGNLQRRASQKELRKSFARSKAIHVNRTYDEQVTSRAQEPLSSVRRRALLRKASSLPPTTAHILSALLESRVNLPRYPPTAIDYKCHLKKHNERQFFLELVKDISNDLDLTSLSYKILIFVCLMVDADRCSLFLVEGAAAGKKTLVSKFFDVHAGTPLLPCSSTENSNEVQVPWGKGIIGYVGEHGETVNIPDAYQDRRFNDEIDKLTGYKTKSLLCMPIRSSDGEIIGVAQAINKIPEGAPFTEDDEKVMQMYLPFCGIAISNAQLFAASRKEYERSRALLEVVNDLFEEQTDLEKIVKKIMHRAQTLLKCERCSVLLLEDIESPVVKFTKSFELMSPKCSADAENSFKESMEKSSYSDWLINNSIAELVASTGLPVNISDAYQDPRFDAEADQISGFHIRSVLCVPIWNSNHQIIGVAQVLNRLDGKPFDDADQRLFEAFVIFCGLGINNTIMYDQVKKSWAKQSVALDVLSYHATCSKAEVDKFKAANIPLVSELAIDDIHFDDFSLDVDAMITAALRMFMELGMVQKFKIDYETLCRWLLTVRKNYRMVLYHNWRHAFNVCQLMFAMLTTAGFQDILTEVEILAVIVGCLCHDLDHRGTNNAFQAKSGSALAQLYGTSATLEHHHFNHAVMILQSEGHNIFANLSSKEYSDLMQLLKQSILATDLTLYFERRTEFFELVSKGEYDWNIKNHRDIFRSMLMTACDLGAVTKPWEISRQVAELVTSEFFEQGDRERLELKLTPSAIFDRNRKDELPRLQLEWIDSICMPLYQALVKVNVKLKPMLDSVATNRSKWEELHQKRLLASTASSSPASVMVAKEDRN

[11] = target: Cone cGMP-specific 3',5'-cyclic phosphodiesterase subunit alpha' (Homo sapiens, UniProt P51160); test: Inhibition of full-length recombinant human PDE6C using [3H]-cGMP as substrate incubated for 10 mins by SPA assay
[12] = target: T1, Dual specificity calcium/calmodulin-dependent 3',5'-cyclic nucleotide phosphodiesterase 1A; test: Inhibition of full-length recombinant human PDE1A using [3H]-cGMP as substrate at 1 uM incubated for 10 mins by SPA assay relative to control
[13] = target: T2, cGMP-dependent 3',5'-cyclic phosphodiesterase; test: Inhibition of full-length recombinant human PDE2A using [3H]-cGMP as substrate at 1 uM incubated for 10 mins by SPA assay relative to control
Homo sapiens = species on record: Homo sapiens; test: Selectivity index, ratio of IC50 for full-length recombinant human PDE6C using [3H]-cGMP as substrate to IC50 for his-tagged recombinant human PDE4D catalytic domain (T86 to S413 residues) expressed in Escherichia coli BL21(DE3) using [3H]-cAMP as substrate

| IC50 [3] [nM] | IC50 [4] [nM] | IC50 [5] [nM] | IC50 [6] [nM] | IC50 [7] [nM] | IC50 [8] [nM] | IC50 [9] [nM] | IC50 [10] [nM] | SMILES | other results |
| --- | --- | --- | --- | --- | --- | --- | --- | --- | --- |
| > 10000 | 420 | 230 | > 10000 | > 10000 | > 10000 | 1290 | > 1000 | COc1ccc(CNc2nc(N(CCO)CCO)nc3c2ncn3C(C)C)cc1 | IC50 [1]: > 1000 nM; IC50 [2]: > 1000 nM |
|  | 2460 |  |  |  |  |  |  | CCOc1ccn(-c2ccc(F)cc2)c(=O)c1C(=O)Nc1ccc(Oc2ccnc(N)c2Cl)c(F)c1 [BMS-777607] |  |
|  | 1000 |  |  |  |  |  |  | O=C(O)c1ccc2c(c1)nc(Nc1cccc(Cl)c1)c1ccncc12 [SILMITASERTIB] |  |
|  | 410 |  |  |  |  |  |  | CCOc1ccc(Cc2nccc3cc(OCC)c(OCC)cc23)cc1OCC [ETHAVERINE HYDROCHLORIDE] |  |
| > 1000 | 2250 | 120 | > 10000 | > 10000 | > 10000 | > 1000 | > 10000 | COc1ccc(CNc2nc(N(CCO)CCO)nc3c2cnn3C(C)C)cc1 | IC50 [11]: 160 nM; inhibition [12]: 59.6%; inhibition [13]: 67.9%; Ratio IC50 (Homo sapiens): 1 |
| > 10000 | 1780 | 40 | > 10000 | > 10000 | > 10000 | > 10000 | > 10000 | COc1ccc(CNc2nc(N(CCO)CCO)nc3c2[nH]c(=O)n3C(C)C)cc1 | IC50 [1]: > 10000 nM; IC50 [2]: > 1000 nM; IC50 [11]: 90 nM; Ratio IC50 (Homo sapiens): 2 |
|  | 1740 |  |  |  |  |  |  | Cn1cc(-c2ccncc2)c(-c2ccc(OCc3ccc4ccccc4n3)cc2)n1 [MARDEPODECT] |  |
|  | 1770 |  |  |  |  |  |  | COc1ncc(-c2ccc3nccc(-c4ccnnc4)c3c2)cc1NS(=O)(=O)c1ccc(F)cc1F [OMIPALISIB] |  |

| SMILES | IC50 [3] [nM] | IC50 [4] [nM] | IC50 [5] [nM] | IC50 [6] [nM] | IC50 [7] [nM] | IC50 [8] [nM] | IC50 [9] [nM] | IC50 [10] [nM] | other results |
| --- | --- | --- | --- | --- | --- | --- | --- | --- | --- |
| COc1ccc2c(c1)CC[C@H]1[C@H]3CC[C@H](NCCCCCCN4C(=O)C=CC4=O)[C@@]3(C)CC[C@@H]21 |  | 940 |  |  |  |  |  |  |  |
